According to patent US7511144B2, “Reverse hydroxamic acid derivatives” (Kaken Pharmaceutical Co., Ltd., priority 2001, dated 2009):
Read-outs that look alike come from different tables or passages of the source.

Tests used:
Assay type in all cases: biochemical
Human MMP8 = molecular target: T1, Human MMP8 (Homo sapiens, UniProt P22894); assay: MMP8 inhibition experiment; settings: concentration required for 50% inhibition of enzyme activity; read-out: IC50 value MMP-8
T1 construct: purchased Calbiochem 444229
In short: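 Human MMP8 activated with APMA for 1 h at 37° C, then incubated with fluorogenic peptide MOCAc-Pro-Leu-Gly-Leu-A2pr(Dnp)-Ala-Arg-NH2 (20 μM stock) for 5 hours at 37° C. Fluorescent substrate cleavage serves as read-out.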

Human MMP3 = molecular target: T2, Human MMP3 (Homo sapiens, UniProt P08254); assay: MMP3 inhibition experiment; settings: concentration required for 50% inhibition of enzyme activity; read-out: IC50 value MMP-3
T2 construct: purchased Calbiochem 444217
In short: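 Fluorescence-quenched substrate NFF-3 (MOCAc/Dnp peptide, 20 μM as prepared) cleaved by 5 ng human MMP3 over 5 hours at 37° C, with inhibition measured from substrate fluorescence.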

Human MMP13 = molecular target: T3, Human MMP13 (Homo sapiens, UniProt P45452); assay: MMP13 inhibition experiment; settings: concentration required for 50% inhibition of enzyme activity; read-out: IC50 value MMP-13
T3 construct: purchased Chemicon CC068

Human MMP1 = molecular target: T4, Human MMP1 (Homo sapiens, UniProt P03956); assay: MMP1 inhibition experiment; settings: read-out: IC50 value MMP-1
T4 construct: purchased Calbiochem 444208
T4 sequence (P03956 100-469): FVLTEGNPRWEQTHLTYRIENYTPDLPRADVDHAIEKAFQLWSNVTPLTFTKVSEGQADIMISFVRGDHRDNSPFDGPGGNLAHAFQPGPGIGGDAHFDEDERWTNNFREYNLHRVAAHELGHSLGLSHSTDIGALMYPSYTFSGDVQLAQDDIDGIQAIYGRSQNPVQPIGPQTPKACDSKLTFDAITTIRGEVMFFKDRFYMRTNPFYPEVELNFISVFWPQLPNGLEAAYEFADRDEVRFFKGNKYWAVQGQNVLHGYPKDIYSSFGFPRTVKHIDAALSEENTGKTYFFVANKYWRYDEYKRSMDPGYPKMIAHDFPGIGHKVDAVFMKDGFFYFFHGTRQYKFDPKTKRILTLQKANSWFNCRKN

Human MMP2 = molecular target: T5, Human MMP2 (Homo sapiens, UniProt P08253); assay: MMP2 inhibition experiment; settings: concentration required for 50% inhibition of enzyme activity; read-out: IC50 value MMP-2
T5 construct: purchased Calbiochem 444213
T5 sequence (P08253 110-660): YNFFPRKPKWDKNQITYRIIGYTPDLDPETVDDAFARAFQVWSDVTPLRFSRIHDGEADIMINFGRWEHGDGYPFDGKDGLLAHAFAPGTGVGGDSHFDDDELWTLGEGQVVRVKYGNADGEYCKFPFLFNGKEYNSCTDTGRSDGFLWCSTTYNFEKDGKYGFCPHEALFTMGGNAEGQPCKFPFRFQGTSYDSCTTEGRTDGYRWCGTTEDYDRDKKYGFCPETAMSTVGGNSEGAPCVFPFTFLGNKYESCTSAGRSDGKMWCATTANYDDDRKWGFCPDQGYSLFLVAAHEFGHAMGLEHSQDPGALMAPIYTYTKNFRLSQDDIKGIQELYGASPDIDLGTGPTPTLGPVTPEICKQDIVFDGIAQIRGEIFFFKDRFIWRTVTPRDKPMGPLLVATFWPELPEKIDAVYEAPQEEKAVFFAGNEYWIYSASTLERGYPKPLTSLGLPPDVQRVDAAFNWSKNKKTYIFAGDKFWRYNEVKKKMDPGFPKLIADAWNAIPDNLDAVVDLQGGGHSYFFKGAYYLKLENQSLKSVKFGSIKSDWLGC

Human MMP14 = molecular target: T6, Human MMP14 (Homo sapiens, UniProt P50281); assay: MMP14 inhibition experiment; settings: concentration required for 50% inhibition of enzyme activity; read-out: IC50 value MMP-14
T6 construct: purchased Biogenesis or Calbiochem 5980-1461 or 475935
In short: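 Fluorescence assay: substrate Dnp-Pro-Cha-Gly-Cys(Me)-His-Ala-Lys(Nma)-NH2 (20 μM before equal-volume mixing) incubated at 37° C for 5 hours with 4 ng human MMP14.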

Human MMP9 = molecular target: T7, Human MMP9 (Homo sapiens, UniProt P14780); assay: MMP9 inhibition experiment; settings: read-out: IC50 value MMP-9
T7 construct: purchased Calbiochem 444231

Human MMP17 = molecular target: T8, Human MMP17 (Homo sapiens, UniProt Q9ULZ9); assay: MMP17 inhibition test; settings: concentration required for 50% inhibition of enzyme activity; read-out: IC50 value MMP-17
T8 construct: purchased Calbiochem 475940
T8 sequence (Q9ULZ9 126-300 limits assumed): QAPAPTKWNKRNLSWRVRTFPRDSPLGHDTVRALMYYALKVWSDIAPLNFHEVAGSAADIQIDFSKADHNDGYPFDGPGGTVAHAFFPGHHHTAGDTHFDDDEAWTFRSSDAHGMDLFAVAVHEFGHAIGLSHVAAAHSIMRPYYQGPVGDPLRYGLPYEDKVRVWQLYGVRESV

TACE = molecular target: T9, TACE (Homo sapiens, UniProt P78536); assay: TACE inhibition experiment (in vitro)
T9 construct: made in house; host or cells: mammalian cells or insect cells

[1] = concentration required for 50% inhibition of enzyme activity

T7 sequence (P14780 107-707 limits assumed): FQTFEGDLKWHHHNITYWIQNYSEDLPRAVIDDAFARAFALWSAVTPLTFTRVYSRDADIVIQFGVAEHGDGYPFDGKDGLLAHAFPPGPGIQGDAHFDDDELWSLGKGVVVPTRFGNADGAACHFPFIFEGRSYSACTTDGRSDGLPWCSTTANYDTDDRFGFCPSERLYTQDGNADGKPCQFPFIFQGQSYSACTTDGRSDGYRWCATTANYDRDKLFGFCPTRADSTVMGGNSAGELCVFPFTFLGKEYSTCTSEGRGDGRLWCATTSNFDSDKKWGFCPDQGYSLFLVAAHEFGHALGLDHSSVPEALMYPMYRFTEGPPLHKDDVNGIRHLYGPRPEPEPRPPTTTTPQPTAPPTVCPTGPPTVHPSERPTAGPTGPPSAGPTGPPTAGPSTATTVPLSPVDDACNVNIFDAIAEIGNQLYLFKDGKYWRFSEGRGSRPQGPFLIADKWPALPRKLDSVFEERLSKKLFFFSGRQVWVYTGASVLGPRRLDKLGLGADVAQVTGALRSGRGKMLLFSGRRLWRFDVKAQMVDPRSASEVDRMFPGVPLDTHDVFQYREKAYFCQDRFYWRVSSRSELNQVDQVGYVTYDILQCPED
T2 sequence (P08254 100-272 limits assumed): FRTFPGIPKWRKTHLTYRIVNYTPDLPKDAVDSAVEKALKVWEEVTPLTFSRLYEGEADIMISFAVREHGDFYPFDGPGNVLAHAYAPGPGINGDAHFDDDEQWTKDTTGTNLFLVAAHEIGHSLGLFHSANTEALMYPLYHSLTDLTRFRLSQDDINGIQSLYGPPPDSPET
T1 sequence (P22894 101-467): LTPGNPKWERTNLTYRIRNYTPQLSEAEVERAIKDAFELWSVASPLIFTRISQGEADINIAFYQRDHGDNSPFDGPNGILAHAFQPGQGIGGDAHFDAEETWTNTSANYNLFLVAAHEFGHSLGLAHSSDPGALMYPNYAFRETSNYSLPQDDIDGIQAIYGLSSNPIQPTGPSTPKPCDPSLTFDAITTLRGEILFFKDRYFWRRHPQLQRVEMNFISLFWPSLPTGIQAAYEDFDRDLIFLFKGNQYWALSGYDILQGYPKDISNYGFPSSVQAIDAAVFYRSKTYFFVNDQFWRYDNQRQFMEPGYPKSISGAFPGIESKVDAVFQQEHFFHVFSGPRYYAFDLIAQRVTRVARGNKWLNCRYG
T9 sequence (P78536 215-824): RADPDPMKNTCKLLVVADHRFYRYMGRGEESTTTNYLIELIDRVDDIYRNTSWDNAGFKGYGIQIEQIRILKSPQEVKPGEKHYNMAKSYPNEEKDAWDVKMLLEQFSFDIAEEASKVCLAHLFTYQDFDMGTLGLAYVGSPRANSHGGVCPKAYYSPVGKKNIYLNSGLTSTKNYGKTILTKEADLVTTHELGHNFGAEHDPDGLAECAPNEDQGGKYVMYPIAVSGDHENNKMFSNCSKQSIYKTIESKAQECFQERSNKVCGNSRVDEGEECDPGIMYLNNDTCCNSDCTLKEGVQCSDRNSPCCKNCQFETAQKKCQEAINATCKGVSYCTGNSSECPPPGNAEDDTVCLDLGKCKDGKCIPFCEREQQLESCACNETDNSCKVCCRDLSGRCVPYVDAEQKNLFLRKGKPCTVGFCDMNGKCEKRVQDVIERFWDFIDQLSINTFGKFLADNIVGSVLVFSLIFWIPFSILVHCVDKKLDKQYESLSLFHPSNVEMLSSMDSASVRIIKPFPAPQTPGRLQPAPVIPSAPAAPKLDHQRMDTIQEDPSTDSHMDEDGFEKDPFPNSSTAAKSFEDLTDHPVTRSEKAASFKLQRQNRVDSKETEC

Row | Compound | IC50 (Human MMP8) | IC50 (Human MMP3) | IC50 (Human MMP13) | IC50 (Human MMP1) | IC50 (Human MMP2) | IC50 (Human MMP14) | IC50 (Human MMP9) | IC50 (Human MMP17) | IC50 (TACE) | IC50 (Human MMP9; [1]) | IC50 (TACE; [1])
1 | CCC(CC)C(=O)N1CCC(=CC(CS(=O)(=O)c2ccc(OCc3cc(C)nc4ccccc34)cc2)N(O)C=O)CC1 (stereo not drawn) [Example I-42] | 61 µM | 2200 nM | 20 µM | 70 µM | 18 µM | 38 µM | 52 µM | 2300 nM | 2.9 nM | – | –
2 | Cc1cc(COc2ccc(S(=O)(=O)CC(C3CCOCC3)N(O)C=O)cc2)c2ccccc2n1 (stereo not drawn) [Example I-49] | 9 µM | 2000 nM | 30 µM | > 100 µM | 24 µM | 90 µM | > 100 µM | 610 nM | 13 nM | – | –
3 | Cc1cc(COc2ccc(S(=O)(=O)CC(C3CCC4(CC3)OCCO4)N(O)C=O)cc2)c2ccccc2n1 (stereo not drawn) [Example I-28, N-{1-(1,4-dioxaspiro[4.5]dec-8-yl)-2-[4-(2-methylquinolin-4-ylmethoxy)benzenesulfonyl]ethyl}-N-hydroxyformamide] | 9 µM | 280 nM | 3.3 µM | 65 µM | 7 µM | 30 µM | – | 220 nM | – | 40 µM | 15 nM
4 | Cc1cc(COc2ccc(S(=O)(=O)CC(N(O)C=O)C3(C)CCC(=O)CC3)cc2)c2ccccc2n1 (stereo not drawn) [Example I-48] | 18 µM | 2800 nM | 50 µM | > 100 µM | 70 µM | > 100 µM | > 100 µM | 1000 nM | 19 nM | – | –
5 | COc1ccc(C(=O)N2CCN(CC(CS(=O)(=O)c3ccc(OCc4cc(C)nc5ccccc45)cc3)N(O)C=O)CC2)cc1 (stereo not drawn) [Example I-54] | 42 µM | 1200 nM | 23 µM | 70 µM | 12 µM | 43 µM | 31 µM | 850 nM | 8 nM | – | –
6 | Cc1cncc(C(CS(=O)(=O)c2ccc(OCc3cc(C)nc4ccccc34)cc2)N(O)C=O)c1 (stereo not drawn) [Example I-31] | 62 µM | 3200 nM | 26 µM | > 100 µM | 50 µM | 90 µM | > 100 µM | 1800 nM | 2.8 nM | – | –
7 | CCN1CCC(=CC(CS(=O)(=O)c2ccc(OCc3cc(C)nc4ccccc34)cc2)N(O)C=O)CC1 (stereo not drawn) [Example I-30] | > 100 µM | 24000 nM | > 100 µM | > 100 µM | 83 µM | > 100 µM | > 100 µM | 8000 nM | 12 nM | – | –
8 | CCC(CC)C(=O)N1CCC(CC(CS(=O)(=O)c2ccc(OCc3cc(C)nc4ccccc34)cc2)N(O)C=O)CC1 (stereo not drawn) [Example I-51] | 7.6 µM | 350 nM | 5.8 µM | 60 µM | 3.2 µM | 40 µM | 37 µM | 400 nM | 10 nM | – | –

Other lines, results leading:

Row | IC50 (Human MMP8) | IC50 (Human MMP3) | IC50 (Human MMP13) | IC50 (Human MMP1) | IC50 (Human MMP2) | IC50 (Human MMP14) | IC50 (Human MMP9) | IC50 (Human MMP17) | IC50 (TACE) | IC50 (Human MMP9; [1]) | IC50 (TACE; [1]) | Compound
9 | > 100 µM | 3000 nM | 28 µM | 74 µM | 71 µM | 55 µM | 80 µM | 7500 nM | 26 nM | – | – | Cc1ccc2nc(C)cc(COc3ccc(S(=O)(=O)CC(c4ccccc4C)N(O)C=O)cc3)c2c1 (stereo not drawn) [Example I-77]
10 | 7 µM | 240 nM | 2.7 µM | 50 µM | 2.6 µM | 19 µM | 46 µM | 110 nM | 14 nM | – | – | CCC(CC)C(=O)N1CCCC(C(CS(=O)(=O)c2ccc(OCc3cc(C)nc4ccccc34)cc2)N(O)C=O)C1 (stereo not drawn) [Example I-130]
11 | 20 µM | 2200 nM | 17 µM | > 100 µM | 11 µM | 64 µM | > 100 µM | 8000 nM | 5.1 nM | – | – | Cc1ccc(C(CS(=O)(=O)c2ccc(OCc3cc(C)nc4ccc(F)cc34)cc2)N(O)C=O)cn1 (stereo not drawn) [Example I-81]
12 | 73 µM | 2900 nM | 20 µM | 68 µM | 58 µM | 46 µM | 70 µM | 6200 nM | 15 nM | – | – | Cc1cc(COc2ccc(S(=O)(=O)CC(c3ccccc3C)N(O)C=O)cc2)c2cc(F)ccc2n1 (stereo not drawn) [Example I-79, N-{2-[4-(6-fluoro-2-methylquinolin-4-ylmethoxy)benzenesulfonyl]-1-o-tolylethyl}-N-hydroxyformamide]
13 | 52 µM | 2800 nM | 16 µM | > 100 µM | 36 µM | 55 µM | > 100 µM | 3900 nM | 3.1 nM | – | – | Cc1cncc(C(CS(=O)(=O)c2ccc(OCc3cc(C)nc4ccc(C)cc34)cc2)N(O)C=O)c1 (stereo not drawn) [Example I-78]
14 | 11 µM | 1900 nM | 27 µM | > 100 µM | 21 µM | > 100 µM | > 100 µM | 580 nM | 3.1 nM | – | – | Cc1cc(COc2ccc(S(=O)(=O)CC(C3CSC(=O)N3C)N(O)C=O)cc2)c2ccccc2n1 (stereo not drawn) [Example I-58]
15 | 58 µM | 5600 nM | 35 µM | 54 µM | 80 µM | 60 µM | > 100 µM | 2600 nM | 10 nM | – | – | COc1ccc(CN2C(=O)SCC2C(CS(=O)(=O)c2ccc(OCc3cc(C)nc4ccccc34)cc2)N(O)C=O)cc1 (stereo not drawn) [Example I-59]
16 | 60 µM | 2400 nM | 32 µM | 64 µM | 30 µM | 65 µM | 75 µM | 2200 nM | 2 nM | – | – | CCC(CC)C(=O)N1CCC(=CC(CS(=O)(=O)c2ccc(OCc3cc(C)nc4ccccc34)cc2)N(O)C=O)C(C)C1 (stereo not drawn) [Example I-63]
17 | 14 µM | 21000 nM | 12 µM | > 100 µM | 9 µM | > 100 µM | > 100 µM | 18000 nM | 200 nM | – | – | COCc1cc(COc2ccc(S(=O)(=O)CC(CC3CCC(=NO)CC3)N(O)C=O)cc2)cc(C)n1 (stereo not drawn) [Example I-122]
18 | 1.9 µM | 4800 nM | 5.8 µM | 34 µM | 1.9 µM | 7 µM | 24 µM | 4800 nM | 6 nM | – | – | Cc1cc(COc2ccc(S(=O)(=O)CC(c3ccccc3C)N(O)C=O)cc2)c2cccc(F)c2n1 (stereo not drawn) [Example I-124, N-{2-[4-(8-fluoro-2-methylquinolin-4-ylmethoxy)benzenesulfonyl]-1-o-tolylethyl}-N-hydroxyformamide]
